Experimental findings from ChEMBL document CHEMBL5512615, “Targeting autophagy drug discovery: Targets, indications and development trends” (Eur J Med Chem, 2024) are described below.

The target of experiment [1] is T1, Patatin-like phospholipase domain-containing protein 2 (Homo sapiens, UniProt Q96AD5).
T1 sequence (Q96AD5 whole entry): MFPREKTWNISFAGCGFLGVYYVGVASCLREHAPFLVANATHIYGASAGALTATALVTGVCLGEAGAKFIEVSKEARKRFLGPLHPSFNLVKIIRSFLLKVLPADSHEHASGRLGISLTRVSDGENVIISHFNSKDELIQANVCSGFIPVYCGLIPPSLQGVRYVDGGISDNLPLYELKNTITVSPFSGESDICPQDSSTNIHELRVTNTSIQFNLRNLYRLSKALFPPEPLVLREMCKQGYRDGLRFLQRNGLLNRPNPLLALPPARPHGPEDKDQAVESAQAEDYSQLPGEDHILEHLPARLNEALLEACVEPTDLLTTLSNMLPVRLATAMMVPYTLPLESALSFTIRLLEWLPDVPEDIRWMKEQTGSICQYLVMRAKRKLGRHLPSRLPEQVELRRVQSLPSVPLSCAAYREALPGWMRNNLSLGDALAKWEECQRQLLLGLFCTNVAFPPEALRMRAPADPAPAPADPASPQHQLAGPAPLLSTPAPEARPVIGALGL
Description: Inhibition of ATGL ubiquitination in human HepG2 cells assessed as inhibition constant

Experiment [2] concerns the target T2, Ubiquitin carboxyl-terminal hydrolase 13 (Homo sapiens, UniProt Q92995).
T2 sequence (Q92995 whole entry): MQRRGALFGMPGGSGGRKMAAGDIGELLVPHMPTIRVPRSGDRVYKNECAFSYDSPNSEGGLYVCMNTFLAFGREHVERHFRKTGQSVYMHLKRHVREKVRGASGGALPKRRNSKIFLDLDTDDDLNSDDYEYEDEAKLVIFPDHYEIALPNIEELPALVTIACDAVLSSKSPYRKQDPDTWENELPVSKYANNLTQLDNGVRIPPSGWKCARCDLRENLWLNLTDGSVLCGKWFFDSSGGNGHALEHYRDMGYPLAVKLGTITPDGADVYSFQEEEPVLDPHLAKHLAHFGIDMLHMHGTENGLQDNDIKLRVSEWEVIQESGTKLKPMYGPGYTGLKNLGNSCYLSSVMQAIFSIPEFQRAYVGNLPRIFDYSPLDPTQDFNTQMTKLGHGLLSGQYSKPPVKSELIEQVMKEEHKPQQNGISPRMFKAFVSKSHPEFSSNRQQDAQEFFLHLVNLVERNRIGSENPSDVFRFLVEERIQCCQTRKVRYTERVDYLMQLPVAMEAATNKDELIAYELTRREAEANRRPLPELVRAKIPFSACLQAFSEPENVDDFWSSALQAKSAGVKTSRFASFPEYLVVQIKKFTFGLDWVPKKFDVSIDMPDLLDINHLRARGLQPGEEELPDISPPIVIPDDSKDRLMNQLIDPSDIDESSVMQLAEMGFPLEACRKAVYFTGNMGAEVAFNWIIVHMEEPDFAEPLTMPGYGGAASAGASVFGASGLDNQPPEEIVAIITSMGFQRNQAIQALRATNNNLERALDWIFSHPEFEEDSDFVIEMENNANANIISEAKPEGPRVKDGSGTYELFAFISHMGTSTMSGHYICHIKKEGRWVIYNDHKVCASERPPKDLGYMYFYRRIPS
Description: Inhibition of USP13 (unknown origin)

For experiment [3], the target named is Ubiquitin carboxyl-terminal hydrolase 10 (Homo sapiens, UniProt Q14694). Description: Inhibition of USP10 (unknown origin).
Experiment [4] deals with Ferritin heavy chain (Homo sapiens, UniProt P02794).
Description: Inhibition of FTH1 (unknown origin)
Experiment [5] has as its target GABA-A receptor; anion channel.
Description: Inhibition of GABA receptor (unknown origin)
The test system of experiment [6] is A549. Description: cells. To be noted: Homo sapiens.
Description: Antiproliferative activity against human A549 cells assessed as reduction in cell viability by MTT assay
In experiment [7] the target is Serine/threonine-protein kinase mTOR (Homo sapiens, UniProt P42345).
Description: Inhibition of human mTORC1 incubated for 90 mins by Lanthascreen time-resolved FRET assay

Chain of Ubiquitin carboxyl-terminal hydrolase 10 (Q14694 whole entry): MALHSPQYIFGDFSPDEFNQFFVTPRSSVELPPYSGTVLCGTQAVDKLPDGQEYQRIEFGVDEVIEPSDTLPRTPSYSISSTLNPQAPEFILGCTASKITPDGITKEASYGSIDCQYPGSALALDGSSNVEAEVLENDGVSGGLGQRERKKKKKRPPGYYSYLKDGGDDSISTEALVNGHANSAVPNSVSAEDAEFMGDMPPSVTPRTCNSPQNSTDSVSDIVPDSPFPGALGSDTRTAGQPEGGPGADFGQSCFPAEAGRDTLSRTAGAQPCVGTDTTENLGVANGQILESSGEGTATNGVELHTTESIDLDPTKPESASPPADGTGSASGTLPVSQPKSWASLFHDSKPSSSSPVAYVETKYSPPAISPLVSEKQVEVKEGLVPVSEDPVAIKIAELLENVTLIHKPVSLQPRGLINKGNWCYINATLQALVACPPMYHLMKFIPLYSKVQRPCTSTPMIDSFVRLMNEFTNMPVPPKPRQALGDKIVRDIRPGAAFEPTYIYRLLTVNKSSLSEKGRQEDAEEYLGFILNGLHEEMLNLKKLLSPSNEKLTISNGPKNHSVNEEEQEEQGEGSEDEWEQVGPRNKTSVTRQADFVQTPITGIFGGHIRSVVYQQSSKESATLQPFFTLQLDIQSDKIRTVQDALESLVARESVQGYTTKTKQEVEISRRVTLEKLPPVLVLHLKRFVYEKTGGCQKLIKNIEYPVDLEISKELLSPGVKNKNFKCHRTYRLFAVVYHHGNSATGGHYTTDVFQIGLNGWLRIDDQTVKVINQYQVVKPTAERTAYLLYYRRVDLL
Chain of Ferritin heavy chain (P02794 whole entry): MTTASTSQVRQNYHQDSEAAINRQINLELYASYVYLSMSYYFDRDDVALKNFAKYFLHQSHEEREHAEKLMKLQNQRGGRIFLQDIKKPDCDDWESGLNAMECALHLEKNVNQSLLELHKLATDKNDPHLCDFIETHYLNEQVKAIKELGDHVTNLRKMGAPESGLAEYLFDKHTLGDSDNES

Consider `N[C@@H]1CCCN(c2c(/C=C3\SC(=O)NC3=O)cccc2-c2ccccc2)C1`, for which the Ki in experiment [1] stood at 0.017 nM. This counts as picomolar.
For `Fc1ccc(CNc2ncnc3ccc(F)cc23)cc1`, the figures for the IC50 in experiment [2] and in experiment [3] were 690 nM and 580 nM, respectively.
Regarding `C=C1CC[C@H]2O[C@]2(C)CC[C@@H]2[C@@H]1CC2(C)C` [(-)-CARYOPHYLLENE OXIDE], the IC50 in experiment [4] is 1 nM.
As for `C[C@H]1[C@H](C)CC[C@]2(C(=O)O)CC[C@]3(C)C(=CC[C@@H]4[C@@]5(C)C[C@@H](O)[C@H](O)[C@@](C)(CO)[C@@H]5CC[C@]43C)[C@H]12` [ASIATIC ACID], the IC50 in experiment [5] worked out at 5900 nM.
In turn, `OC[C@H]1O[C@@H](c2ccc(Cl)c(Cc3ccc(O[C@H]4CCOC4)cc3)c2)[C@H](O)[C@@H](O)[C@@H]1O` [EMPAGLIFLOZIN] yielded an EC50 in experiment [6] of 3 nM.
`CO[C@H]1C[C@@H]2CC[C@@H](C)[C@@](O)(O2)C(=O)C(=O)N2CCCC[C@H]2C(=O)O[C@H]([C@H](C)C[C@@H]2CC[C@@H](OCCO)[C@H](OC)C2)CC(=O)[C@H](C)/C=C(\C)[C@@H](O)[C@@H](OC)C(=O)[C@H](C)C[C@H](C)/C=C/C=C/C=C/1C` [EVEROLIMUS] registered an IC50 in experiment [7] of 150 nM.

As a reminder, the Ki is a dissociation constant, usually derived from enzyme kinetics or from competition with a known ligand. Read a high Ki as lower affinity. By IC50 is commonly meant the midpoint of a concentration-inhibition curve. Lower therefore signals higher potency. The EC50 is the concentration giving half of the maximal effect. A high value points to lower potency in that assay.
